These results are taken from patent US20100041672A1, “USE OF QUINOLINE DERIVATIVES IN THE TREATMENT OF PAIN AND IRRITABLE BOWEL SYNDROME” (GLAXO GROUP LIMITED, priority 2007, published 2010).

“Also recorded” adds a separate entry of the source.

One test deals with rats. Nature of the test: Chronic Constriction Injury (CCI) model of neuropathic pain in rats (mechanical allodynia, Von Frey hairs). Type of test: in vivo, rat. Particulars: 10 mg/kg b.i.d. po. As to the method: Under Isoflurane anaesthesia, the sciatic nerve in the left leg of the rat was exposed at mid thigh level and 4 loose ligatures of Chromic 4.0 gut tied around it. The wound was closed and secured with staples. The Sham operated animals underwent the same surgical technique except that the nerve was not ligated. […] The presence of mechanical (tactile) allodynia was assessed using the manual application of Von Frey hair monofilaments (Stoelting, Wood Dale, Ill., USA). Animals were placed in clear Perspex boxes on a raised perforated metallic platform, from below which the monofilaments were applied in ascending order to the plantar region of the hind paw (range: 1.4 g-26 g). Each hair was applied for approx. 3-5 seconds until a withdrawal response was observed. The lowest hair to give a withdrawal was recorded as the response after confirmation with reapplication of lower and/or higher hairs within the range tested.
All data are expressed as mean±s.e.m. Statistical analysis was carried out using Repeated Measures ANOVA (Statistica Version 6) to compare the vehicle treated groups with the drug treated groups (P<0.05 considered significant). Area Under Curve (AUC) calculations were performed within Excel and statistical analysis was carried out using a one-way ANOVA followed by Fischer LSD post-hoc test (Statistica Version 6) to compare the vehicle treated CCI and Sham groups with the drug treated groups (P<0.05 considered significant). Data recorded in Excel (Microsoft XP) and graphs produced in GraphPad Prism (Version 4).
By 8 days post-surgery neuropathy was beginning to develop as mechanical allodynia (assessed using mVFHs) was evident in all CCI operated groups compared to the Sham operated animals. This was maintained as a stable baseline until day 23 post-surgery (FIG. 12), when the animals were randomised and then chronically dosed with either SB742457 (10 mg/kg b.i.d. po), gabapentin (30 mg/kg b.i.d. po) or vehicle (1% methylcellulose; b.i.d. po) for 8 days (days 26-33 post-surgery). […] Three days after cessation of treatment the withdrawal thresholds of the drug treated groups had decreased back towards vehicle treated baseline levels.

The next test deals with male Sprague Dawley rats. Nature of the test: rat intra rectal mustard oil model of visceral pain. The class given is in vivo. Particulars: for reduction in behaviours compared to vehicle treated animals: behaviours counted 25 minutes; for statistical significance of reduction in behaviours vs vehicle: orally 60 minutes prior to mustard oil, all doses examined. How it is done: All behavioural responses consistent with the presence of pain were determined following intra rectal injection of mustard oil in male Sprague Dawley rats. Typical behavioural responses consistent with the presence of pain following intra-colonic mustard oil injection include: arching, abdominal lifting, abdominal tensing, stretching, extending the rear leg (when lying down), raising and lowering the testicles, tip-toeing and writhing.
Male Sprague Dawley rats (130 g-160 g) were briefly sedated with 50% oxygen/50% carbon dioxide and 0.2 ml of 3% mustard oil injected into the colorectum, 1.5 cm from the anus. The anus was plugged with vaseline and animals placed in observational cages to which they had previously been acclimatised for 45 minutes prior to mustard oil injection. The number of visceral pain related behaviours, which consisted primarily of abdominal arching, were counted over a 25 minute period and the animals culled by cervical dislocation.
In separate studies, the effects of alosetron (0.1, 0.3 and 1.0 mg/kg n=10 per group), gabapentin (10, 30 and 100 mg/kg n=10 per group) and amitriptyline (3, 10 and 30 mg/kg n=9-10 per group) or vehicle (saline for alosetron and amitriptyline 10% 1-Methyl-2-pyrolidone in saline for gabapentin n=10 per study) given sub cutaneously 15 minutes prior to injection of 3% mustard oil were examined on pain behaviour. Results in FIGS. 4, 5 and 6 are expressed as mean±sem percentage of behaviours compared to vehicle treated animals and were statistically compared to vehicle treated animals using a one way ANOVA with Dunnett's comparison, p<0.05 considered significant.
The effect of SB742457 (0.03, 0.1, 1.0, 3.0 and 10 mg/kg, n=10 per group for the 0.03, 0.1 and 10 mg/kg groups, and n=20 for the 1.0 and 3.0 mg/kg groups) or vehicle (saline n=20) given orally 60 minutes prior to injection of mustard oil (3% mustard oil, 70% ethanol in saline) were examined on pain behaviour. The total number of visceral pain related behaviours, which consisted primarily of abdominal arching, were counted over a 25 minute period and the animals culled by cervical dislocation. Behaviours were normalised as the percentage of the vehicle group mean and expressed as mean+/−sem. Data was combined from two studies and normalised as the percentage of the vehicle group mean for each individual study and expressed as mean+/−sem for both studies. Percentage of behaviours compared to vehicle treated animals were analysed statistically using a one way ANOVA with Dunnett's comparison, p<0.05 considered significant, FIG. 10.
The effect of SB792988A (0.03, 0.1, 0.3, 1.0, 3.0 and 10 mg/kg, n=9 for 1.0 mg/kg, n=10 per group for the 0.03, 0.1 and 3.0 mg/kg groups, n=20 per group for the 0.3 and 10 mg/kg groups) or vehicle (saline n=20) given orally 60 minutes prior to injection of mustard oil (3% mustard oil, 70% ethanol in saline) were examined on pain behaviour. The total number of visceral pain related behaviours, which consisted primarily of abdominal arching, were counted over a 25 minute period and the animals culled by cervical dislocation. Behaviours were normalised as the percentage of the vehicle group mean and expressed as mean+/−sem. Data was combined from two studies and normalised as the percentage of the vehicle group mean for each individual study and expressed as mean+/−sem for both studies. Percentage of behaviours compared to vehicle treated animals were analysed statistically using a one way ANOVA with Dunnett's comparison, p<0.05 considered significant, FIG. 11.

Setting [1] is: 0.03 mg/kg orally 60 minutes prior to mustard oil.
[2] abbreviates: 0.1 mg/kg orally 60 minutes prior to mustard oil.
The mark [3] stands for this setting: 1.0 mg/kg orally 60 minutes prior to mustard oil.
Setting [4] is: 3.0 mg/kg orally 60 minutes prior to mustard oil.
The mark [5] stands for this setting: 10 mg/kg orally 60 minutes prior to mustard oil.

`O=S(=O)(c1ccccc1)c1cnc2c(N3CCNCC3)cccc2c1` [SB742457, 3-Phenylsulfonyl-8-piperazin-1-yl-quinoline]: the “reversal of mechanical allodynia after 5 days of dosing” value in the test with rats (after 5 days of dosing) is “not significantly different to Sham levels; also recorded: maximal reversal back to Sham levels”. Also, the “reversal of mechanical allodynia after 8 days of dosing” value in the test with rats (after 8 days of dosing) was “maximal reversal (P<0.001) back to Sham levels”. Moreover, the “time to significant reversal of CCI-induced mechanical allodynia” value with rats (after a single dose) is ≤ 1 h. For the same compound, the “comparison with the positive control gabapentin (30 mg/kg b.i.d. po)” value in the test on rats (throughout the study) is on record as “not significantly different to each other”. The “reduction in behaviours compared to vehicle treated animals” value in the test with male Sprague Dawley rats (setting [1]) is listed as 56%; in the test on male Sprague Dawley rats (setting [2]) it was 56%; in the test with male Sprague Dawley rats (setting [3]), 44%; in the test on male Sprague Dawley rats (setting [4]), 50%; in the test with male Sprague Dawley rats (setting [5]), 62%. In addition, the “statistical significance of reduction in behaviours vs vehicle” value in the test with male Sprague Dawley rats is reported as “statistically significant from vehicle treated animals at all doses examined”.
As to `Cl.O=S(=O)(c1cccc(F)c1)c1cnc2c(N3CCNCC3)cccc2c1` [SB792988A, 3-[(3-Fluorophenyl)sulfonyl]-8-(1-piperazinyl)quinoline Hydrochloride], the “reduction in behaviours compared to vehicle treated animals” value in the test with male Sprague Dawley rats (setting [1]) turned out to be 38%; in the test on male Sprague Dawley rats (setting [2]) it was 40%; with male Sprague Dawley rats (0.3 mg/kg orally 60 minutes prior to mustard oil), 42%; with male Sprague Dawley rats (setting [3]) it was 55%; in the test with male Sprague Dawley rats (setting [4]) it was 65%; in the test on male Sprague Dawley rats (setting [5]), 74%. Moreover, the “statistical significance of reduction in behaviours vs vehicle” value in the test with male Sprague Dawley rats is “statistically significant from vehicle treated animals at all doses examined”.
